Measurements: patent US20220378763A1, “COMPOUND FOR TREATMENT OF ACUTE INFLAMMATION IN THE MYOCARDIUM” (CALPROTECT AB, priority 2019, published 2022)

How the values were obtained:
[1] = system: C57BL/6 mice with induced MI; assay: Flow cytometry of myeloid cells and reparatory macrophages on day 7 post-MI; type: in vivo, mouse; details: for Intra-myocardial counts of reparatory macrophages vs PBS-treated MI controls: hearts collected 7 days post-MI
Method: Immune cells from blood, spleen, heart and bone-marrow were collected at 2 or 7 days post-MI, and analysed by flow-cytometry. Mice were anesthetized by intraperitoneal injection of a mixture of xylazine (10 mg/kg) and ketamine (100 mg/kg). After 10 minutes, blood was collected by cardiac punction. Thereafter, the spleen was removed and the heart was perfused with 5 ml ice-cold PBS. Perfused hearts were excised and collected into tubes with PBS and kept on ice. Femurs and tibias from each mouse were used to obtain whole bone marrow for analysis. Blood was stained with fluorochrome-labelled antibodies against mouse monocyte and neutrophil markers diluted in MACS buffer (PBS, 10% FCS and 0.5% BSA), followed by treatment with erythrocyte lysis buffer, washing and analysis. Spleens were mashed trough a cell strainer in ice-cold PBS. Hearts were cut into small pieces and placed into tubes containing 2.5 ml digestion cocktail (Collagenase I, 450 U/ml; Collagenase XI, 125 U/ml; DNAase I, 60 U/ml; Hyaluronidase type 1-5, 60 U/ml diluted in PBS containing Ca and Mg) incubated for 1 h at 37° C. with shaking at 220 rpm. Bone marrow was flushed from femur and tibia using ice-cold PBS. Cell suspensions from spleen, heart and bone marrow were filtered through a 40 um cell strainer (BD), treated with erythrocyte lysis buffer, washed and stained. For intracellular staining, cells were fixed, permeabilized and stained. Cell populations were analyzed by flow cytometry in a Gallios Flow Cytometer (Backman Coulter), and the results were analyzed using FlowJo (FlowJo®, LLC; Tree Star). The following anti-mouse antibodies were used for the flow cytometric analysis: anti-CD45 (30-F11), anti-CD11b (M1/70), anti-Ly6C (HK1.4), anti-CD115 (AFS98), anti-Ly6G (1A8), anti-F4/80 (BM8), anti-CCR2 (475301), anti-Ter119 (TER119), anti-Gr1 (RB6-8C5), anti-CD45R/B220 (RA3-6B2), anti-CD3ξ (145-2C11), anti-NK1.1 (PK136), anti-Ly6A/E (Sca-1) (E13-1617), anti-CD117 (c-kit) (2B8), anti-CD48 (HM48.1), anti-CD150/SLAM (TC15-12F12.2), anti-CD16/32 (93), anti-CD34 (MEC14.7) (all from BioLegend, San Diego, Calif., USA); anti-MerTK (DSSMMER) and anti-Nur77 (12.14) (eBioscience).
MI induction and other procedures were carried out as outlined in Example 2. For long-term experiments of up to 21 days, a daily dose of 30 mg/Kg ABR-238901 was diluted in PBS and administered by daily i.p. injections for the first 3 days post-MI until the mice recovered and started to drink normally, and thereafter p.o. ad-libitum in meglumine buffer (FIG. 4A). Adequate treatment dosage was ensured by closely monitoring daily fluid intake.
In an attempt to explain these intriguing results, we assessed the effects of the extended treatment on the presence of myeloid cells in blood, spleen, bone marrow and myocardium, with particular emphasis on cellular populations involved in myocardial repair. The cellular infiltration was analysed by flow cytometry on day 7, at the peak of the reparatory post-MI period. […] Reparatory macrophages in the ischemic myocardium have previously been defined as CD11b^+F4/80^+Ly6C^lo cells. […] In order to investigate the possible mechanisms leading to impaired cardiac function in mice receiving long-term S100A9 blockade, we examined the presence and function of Ly6C^loMerTK^hi macrophages in the myocardium at 7 days post-MI. We found an approximately 50% reduction of the number of reparatory macrophages in hearts of mice receiving ABR-238901 compared to controls (FIG. 40). […] In order to test the functional importance of these findings, we used α-MHC-mCherry mice expressing cardiac-specific red fluorescent Cherry protein under the mouse a-myosin heavy-chain promoter.
Reparatory macrophage numbers were analysed in hearts collected at 7 days post-MI from mice with induced MI treated with ABR-238901 for 3 or 7 days.

[2] = system: Nur77 in bone marrow-derived monocytes; assay: Nur77 expression in cultured bone marrow-derived monocytes stimulated with S100A9; type: cell-based, mouse; details: S100A9 20 μg/mL, ABR-238901 100 μM, 24 h
Method: To obtain bone marrow-derived monocytes, bone marrow cells were isolated from femur and tibia of wild-type mice (C57BL/6NRJ) (n=3). Cells were cultured in RPMI-1640 (GIBCO Invitrogen) with 100 U/ml penicillin/streptomycin (GIBCO Invitrogen), 10% heat-inactivated fetal calf serum (FCS; GIBCO Invitrogen) and 20 ng/ml M-CSF (Peprotech) for 3 days. On day 3, unattached cells were collected, and the monocyte phenotype was confirmed by flow cytometry as CD45^+CD11b^+CD115^+ cells. The cells were re-suspended in medium and seeded at a density of 1×10^5 cells/ml. Extracellular S100A9 (20 μg/mL) with or without the S100A9 antagonist ABR-238901 at a concentration of 100 μM were incubated in the presence of 10 μM ZnCl2 (Sigma) and 2 mM CaCl2 for 15 minutes and added to the monocyte culture. Recombinant human endotoxin-free S100A9 protein was provided by Active Biotech AB. Following 24 h stimulation, intracellular Nur77 expression was analysed by flow cytometry.

[3] = treatment for 7 days, 7 days post-MI

For `COc1ncc(S(=O)(=O)Nc2cncc(Cl)c2O)cc1Br` [ABR-238901, 5-bromo-N-(5-chloro-4-hydroxypyridin-3-yl)-6-methoxypyridine-3-sulfonamide], the “Intra-myocardial counts of reparatory macrophages vs PBS-treated MI controls” value ([1]; 3 days treatment) was “on par with”, the “Intra-myocardial counts of reparatory macrophages vs PBS-treated MI controls” value ([1]; continuous treatment for 7 days) was “significantly lower” and the “Percentage of reparatory Ly6CloMerTKhi out of total CD11b+F4/80+ macrophages” value [1, 3] was “significantly decreased”. The “Reduction of the number of reparatory Ly6CloMerTKhi macrophages in hearts vs controls” value [1, 3] was “approximately 50%”, the “Cell counts in the bone marrow” value ([1]; treatment for 7 days, day 7) was “no differences” and the “Monocytes in the spleen vs MI controls” value ([1]; treatment for 7 days, day 7) was “accumulation”. For the same compound, the “Numbers of circulating monocytes” value ([1]; treatment for 7 days, day 7) was “significantly lower”, the “Numbers of circulating neutrophils” value ([1]; treatment for 7 days, day 7) was “significantly lower” and the “Numbers of neutrophils in the spleen” value ([1]; treatment for 7 days, day 7) was “not significantly affected”. For the same compound, the “Presence of monocytes in the heart” value ([1]; treatment for 7 days, day 7) was “potently reduced”, the “Presence of total CD11b+F4/80+ macrophages in the heart” value ([1]; treatment for 7 days, day 7) was “potently reduced” and the “S100A9-induced increase of Nur77 expression” value [2] was “inhibited”.
